In PubChem BioAssay AID248 (DTP/NCI, 2004):
Where “and” joins values, the source holds several entries; their conditions need not be identical. Equal entries are not always repeated. Toxic doses and inconclusive results are not listed. Rule as the data show it: active = T/C of 150% or more; inactive = T/C below 125%.

Tested on: L1210 leukemia ip in BDF1 mice, survival T/C
Test: NCI In Vivo Anticancer Drug Screen. Data for tumor model L1210 Leukemia (intraperitoneal) in B6D2F1 (BDF1) mice
Details: endpoint: mean survival time, higher = longer survival
Method: The antitumor activity of compounds was measured in mice bearing transplantable tumors. Survival or tumor size were measured and the results are expressed as the measurement made in the treated group (T) divided by the measurement made in the vehicle treated control group (C). The tumor model used in this assay is L1210 Leukemia (intraperitoneal) in B6D2F1 (BDF1) mice

[1] = dose: 12.5 mg/kg/injection, schedule: Q01DX009 (ip), vehicle: Klucel (hydroxypropylcellulose) (HPC)
[2] = dose: 25.0 mg/kg/injection, schedule: Q01DX009 (ip), vehicle: Klucel (hydroxypropylcellulose) (HPC)
[3] = dose: 50.0 mg/kg/injection, schedule: Q01DX009 (ip), vehicle: Klucel (hydroxypropylcellulose) (HPC)
[4] = dose: 100.0 mg/kg/injection, schedule: Q01DX001 (ip), vehicle: Klucel (hydroxypropylcellulose) (HPC)
[5] = dose: 200.0 mg/kg/injection, schedule: Q01DX001 (ip), vehicle: Klucel (hydroxypropylcellulose) (HPC)
[6] = dose: 400.0 mg/kg/injection, schedule: Q01DX001 (ip), vehicle: Klucel (hydroxypropylcellulose) (HPC)
[7] = dose: 100.0 mg/kg/injection, schedule: Q01DX001 (ip), vehicle: other
[8] = dose: 200.0 mg/kg/injection, schedule: Q01DX001 (ip), vehicle: other
[9] = dose: 400.0 mg/kg/injection, schedule: Q01DX001 (ip), vehicle: other
[10] = dose: 100.0 mg/kg/injection, schedule: Q01DX009 (ip), vehicle: Klucel (hydroxypropylcellulose) (HPC)
[11] = dose: 200.0 mg/kg/injection, schedule: Q01DX009 (ip), vehicle: Klucel (hydroxypropylcellulose) (HPC)
[12] = dose: 100.0 mg/kg/injection, schedule: Q01DX001 (ip), vehicle: saline

Measured: T/C

Oc1c(-c2ccccc2)c(-c2ccccc2)cc(-c2ccccc2)c1-c1ccccc1
inactive: dose: 100.0 mg/kg/injection, schedule: Q01DX001 (ip), vehicle: saline with Tween-80 102 % of control | dose: 200.0 mg/kg/injection, schedule: Q01DX001 (ip), vehicle: saline with Tween-80 94 % of control | dose: 400.0 mg/kg/injection, schedule: Q01DX001 (ip), vehicle: saline with Tween-80 88 % of control

NC(N)=NCCN=C(N)N
inactive: dose: 15.0 mg/kg/injection, schedule: Q01DX Z (oral), vehicle: saline 97 % of control | dose: 30.0 mg/kg/injection, schedule: Q01DX Z (oral), vehicle: saline 103 % of control | dose: 60.0 mg/kg/injection, schedule: Q01DX Z (oral), vehicle: saline 101 % of control | dose: 120.0 mg/kg/injection, schedule: Q01DX Z (oral), vehicle: saline 95 % of control

COc1ccccc1N1CCN(CCCC(O)c2ccc(F)cc2)CC1 (stereo not given)
inactive: dose: 10.0 mg/kg/injection, schedule: Q04DX003 (ip), vehicle: Klucel (hydroxypropylcellulose) (HPC) 91 % of control | [1] 98 % of control | dose: 20.0 mg/kg/injection, schedule: Q04DX003 (ip), vehicle: Klucel (hydroxypropylcellulose) (HPC) 98 % of control | [2] 100 % of control | dose: 40.0 mg/kg/injection, schedule: Q04DX003 (ip), vehicle: Klucel (hydroxypropylcellulose) (HPC) 90 % of control | [3] 98 % of control

O=C1/C(=C/c2ccco2)CC/C1=C\c1ccco1
inactive: [4] 93 % of control | dose: 100.0 mg/kg/injection, schedule: Q04DX003 (ip), vehicle: Klucel (hydroxypropylcellulose) (HPC) 94 % of control | [5] 101 % of control | dose: 200.0 mg/kg/injection, schedule: Q04DX003 (ip), vehicle: Klucel (hydroxypropylcellulose) (HPC) 96 % of control | [6] 95 % of control | dose: 400.0 mg/kg/injection, schedule: Q04DX003 (ip), vehicle: Klucel (hydroxypropylcellulose) (HPC) 96 % of control

CC(=O)c1ccc(O)c2ccccc12
inactive: dose: 100.0 mg/kg/injection, schedule: Q04DX002 (ip), vehicle: saline with Tween-80 92 % of control | dose: 200.0 mg/kg/injection, schedule: Q04DX002 (ip), vehicle: saline with Tween-80 95 % of control | dose: 400.0 mg/kg/injection, schedule: Q04DX002 (ip), vehicle: saline with Tween-80 100 % of control

CC(=O)c1cccc(F)n1
inactive: dose: 100.0 mg/kg/injection, schedule: Q04DX002 (ip), vehicle: Klucel (hydroxypropylcellulose) (HPC) 93 % of control | dose: 200.0 mg/kg/injection, schedule: Q04DX002 (ip), vehicle: Klucel (hydroxypropylcellulose) (HPC) 110 % of control | dose: 400.0 mg/kg/injection, schedule: Q04DX002 (ip), vehicle: Klucel (hydroxypropylcellulose) (HPC) 100 % of control

O=C(Nc1ccc([N+](=O)[O-])cc1)OCC(COc1ccccc1)OC(=O)Nc1ccc([N+](=O)[O-])cc1 (stereo not given)
inactive: [7] 100 % of control | [8] 89 % of control | [9] 100 % of control

COc1ccc(C2C=C(C)Oc3c2c(=O)oc2ccccc32)cc1OC (stereo not given)
inactive: dose: 6.25 mg/kg/injection, schedule: Q01DX009 (ip), vehicle: water 96 % of control | dose: 12.5 mg/kg/injection, schedule: Q01DX009 (ip), vehicle: water 98 % of control | dose: 25.0 mg/kg/injection, schedule: Q01DX009 (ip), vehicle: water 100 % of control and 91 % of control | dose: 50.0 mg/kg/injection, schedule: Q01DX009 (ip), vehicle: water 86 % of control

CNc1ncnc(N(C)C)c1[N+](=O)[O-]
inactive: [3] 102 % of control | [10] 98 % of control | [11] 109 % of control

Cn1c(C=O)cc2ccccc21
inactive: dose: 100.0 mg/kg/injection, schedule: Q01DX001 (ip), vehicle: carboxymethylcellulose (CMC) 90 % of control | dose: 100.0 mg/kg/injection, schedule: Q01DX009 (ip), vehicle: saline 94 % of control | dose: 100.0 mg/kg/injection, schedule: Q04DX002 (ip), vehicle: saline 110 % of control | dose: 200.0 mg/kg/injection, schedule: Q01DX001 (ip), vehicle: carboxymethylcellulose (CMC) 98 % of control | dose: 200.0 mg/kg/injection, schedule: Q01DX009 (ip), vehicle: saline 97 % of control | dose: 200.0 mg/kg/injection, schedule: Q04DX002 (ip), vehicle: saline 104 % of control | dose: 400.0 mg/kg/injection, schedule: Q01DX001 (ip), vehicle: carboxymethylcellulose (CMC) 102 % of control | dose: 400.0 mg/kg/injection, schedule: Q04DX002 (ip), vehicle: saline 100 % of control

CN1C(=O)CCC1=O
inactive: dose: 100.0 mg/kg/injection, schedule: Q04DX003 (ip), vehicle: saline 103 % of control | dose: 200.0 mg/kg/injection, schedule: Q04DX003 (ip), vehicle: saline 98 % of control | dose: 400.0 mg/kg/injection, schedule: Q04DX003 (ip), vehicle: saline 98 % of control

O=C(N/N=C/c1ccc2c(c1)OCO2)c1ccco1
inactive: [7] 96 % of control | [8] 93 % of control | [9] 98 % of control

c1ccc(COCCNCCOCc2ccccc2)cc1
inactive: [1] 100 % of control | dose: 12.5 mg/kg/injection, schedule: Q04DX003 (ip), vehicle: Klucel (hydroxypropylcellulose) (HPC) 107 % of control | [2] 96 % of control | dose: 25.0 mg/kg/injection, schedule: Q04DX003 (ip), vehicle: Klucel (hydroxypropylcellulose) (HPC) 94 % of control | [3] 95 % of control | dose: 50.0 mg/kg/injection, schedule: Q04DX003 (ip), vehicle: Klucel (hydroxypropylcellulose) (HPC) 95 % of control

CCCCCCCCC(=O)NCCCNC(=O)CCCCCCCC
inactive: dose: 30.0 mg/kg/injection, schedule: Q01DX001 (ip), vehicle: saline 96 % of control | [12] 91 % of control | dose: 300.0 mg/kg/injection, schedule: Q01DX001 (ip), vehicle: saline 93 % of control

Cc1cc2no[n+]([O-])c2cc1C
inactive: [3] 108 % of control | [4] 100 % of control | [10] 106 % of control | [5] 96 % of control | [11] 114 % of control

CC1=C(N2CCN(c3ccc(Cl)cc3)CC2)C(=O)CC(C)(C)C1
inactive: [12] 97 % of control | dose: 200.0 mg/kg/injection, schedule: Q01DX001 (ip), vehicle: saline 101 % of control | dose: 400.0 mg/kg/injection, schedule: Q01DX001 (ip), vehicle: saline 103 % of control

O=C(O)c1ccc(OC(F)(F)C(F)Cl)cc1 (stereo not given)
inactive: [3] 100 % of control | [10] 98 % of control

O=C(O)CC(NCc1ccccc1)C1CCCCC1 (stereo not given)
inactive: [4] 95 % of control | [5] 101 % of control | [6] 98 % of control

CN(CCO)/N=N/c1nc[nH]c1C#N
inactive: [7] 98 % of control | dose: 100.0 mg/kg/injection, schedule: Q01DX009 (ip), vehicle: saline with Tween-80 103 % of control | dose: 100.0 mg/kg/injection, schedule: Q04DX003 (ip), vehicle: saline with Tween-80 102 % of control | [8] 100 % of control | dose: 200.0 mg/kg/injection, schedule: Q01DX009 (ip), vehicle: saline with Tween-80 103 % of control | dose: 200.0 mg/kg/injection, schedule: Q04DX003 (ip), vehicle: saline with Tween-80 107 % of control | [9] 94 % of control | dose: 400.0 mg/kg/injection, schedule: Q01DX009 (ip), vehicle: saline with Tween-80 113 % of control | dose: 400.0 mg/kg/injection, schedule: Q04DX003 (ip), vehicle: saline with Tween-80 102 % of control
